Article PMC7419507, “In vitro Cas9-assisted editing of modular polyketide synthase genes to produce desired natural product derivatives” (Nature Communications, 2020)
“And” between values parts separate entries of the source, which are not always exact repeats. Equal values may be shown once.

How the values were obtained:
[1] = tested on: Jurkat, SKOV-3 and MESO-1 cells; assay: Cytotoxicity assay, statements for all tested cell lines together; assay type: cell-based; details: against the tested cell lines (Jurkat, SKOV-3, MESO-1)
Procedure, shortened: (§1)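 Viability read by CellTiter-Glo luminescence after 72 h exposure to 2-fold compound dilutions (0.5% DMSO), added 4 h after plating 1000 cells/well.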

[2] = Cytotoxicity assay (CellTiter-Glo, 72 h), SKOV-3; assay type: cell-based, human; details: human, raw replicate data, read-out: SKOV3 viability (%)
Procedure, shortened: as §1

[3] = tested on: human ovarian adenocarcinoma SKOV-3 cells; assay: Cytotoxicity assay (CellTiter-Glo, 72 h), SKOV-3; assay type: cell-based; details: raw replicate data
Procedure, shortened: as §1

[4] = tested on: malignant pleural mesothelioma MESO-1 cells; assay: Cytotoxicity assay (CellTiter-Glo, 72 h), MESO-1; assay type: cell-based; details: raw replicate data
Procedure, shortened: as §1

[5] = Cytotoxicity assay (CellTiter-Glo, 72 h), MESO-1; assay type: cell-based; details: human, MESO-1 malignant pleural mesothelioma cells, raw replicate data, read-out: MESO1 viability (%)
Procedure, shortened: as §1

T lymphoma Jurkat cells = assay: Cytotoxicity assay (CellTiter-Glo, 72 h), Jurkat; assay type: cell-based; details: raw data (replicates)
Procedure, shortened: as §1

[6] = Cytotoxicity assay (CellTiter-Glo, 72 h), Jurkat; assay type: cell-based; details: human, Jurkat cells (T lymphoma), raw data (replicates)
Procedure, shortened: as §1

## CO[C@H]1C[C@@H]2CC[C@@H](C)[C@@](O)(O2)C(=O)C(=O)N2CCCC[C@H]2C(=O)O[C@H]([C@H](C)C[C@@H]2CC[C@@H](O)[C@H](OC)C2)CC(=O)[C@H](C)/C=C(\C)[C@@H](O)CC(=O)[C@H](C)C[C@H](C)/C=C/C=C(C)/C=C/1C [Compound 2, 27-demethoxy-19-methyl rapamycin]
[1]
  Concentration at which cytotoxic activities were shown: over 10 µM
[2]; SKOV-3 cells (ovarian adenocarcinoma), conc 9.53674e-5 uM
  viability at 72 h, 9.53674e-05 uM: 94.7%
[2]; SKOV-3 cells (ovarian adenocarcinoma), conc 0.000190735 uM
  viability at 72 h, 0.000190735 uM: 95.8%
[2]; SKOV-3 cells (ovarian adenocarcinoma), conc 0.00038147 uM
  viability at 72 h, 0.00038147 uM: 97.8%
[2]; SKOV-3 cells (ovarian adenocarcinoma), conc 0.000762939 uM
  viability at 72 h, 0.000762939 uM: 98.5%
[2]; SKOV-3 cells (ovarian adenocarcinoma), conc 0.00152588 uM
  viability at 72 h, 0.00152588 uM: 106%
[2]; SKOV-3 cells (ovarian adenocarcinoma), conc 0.00305176 uM
  viability at 72 h, 0.00305176 uM: 97%
[2]; SKOV-3 cells (ovarian adenocarcinoma), conc 0.00610352 uM
  viability at 72 h, 0.00610352 uM: 105%
[2]; SKOV-3 cells (ovarian adenocarcinoma), conc 0.012207 uM
  viability at 72 h, 0.012207 uM: 90.8%
[2]; SKOV-3 cells (ovarian adenocarcinoma), conc 0.0244141 uM
  viability at 72 h, 0.0244141 uM: 96.5%
[2]; SKOV-3 cells (ovarian adenocarcinoma), conc 0.0488281 uM
  viability at 72 h, 0.0488281 uM: 96.1%
[2]; SKOV-3 cells (ovarian adenocarcinoma), conc 0.0976562 uM
  viability at 72 h, 0.0976562 uM: 97.7%
[2]; SKOV-3 cells (ovarian adenocarcinoma), conc 0.195312 uM
  viability at 72 h, 0.195312 uM: 97.9%
[2]; SKOV-3 cells (ovarian adenocarcinoma), conc 0.390625 uM
  viability at 72 h, 0.390625 uM: 98.8%
[2]; SKOV-3 cells (ovarian adenocarcinoma), conc 12.5 uM
  viability at 72 h, 12.5 uM: 91.2%
[2]; SKOV-3 cells (ovarian adenocarcinoma), conc 25 uM
  viability at 72 h, 25 uM: 100%
[2]; SKOV-3 cells (ovarian adenocarcinoma), conc 50 uM
  viability at 72 h, 50 uM: 20.5%
[2]; SKOV-3 ovarian adenocarcinoma cells, conc 0.78125 uM
  viability at 72 h, 0.78125 uM: 93.9%
[2]; SKOV-3 ovarian adenocarcinoma cells, conc 1.5625 uM
  viability at 72 h, 1.5625 uM: 95.7%
[2]; SKOV-3 ovarian adenocarcinoma cells, conc 3.125 uM
  viability at 72 h, 3.125 uM: 102%
[2]; SKOV-3 ovarian adenocarcinoma cells, conc 6.25 uM
  viability at 72 h, 6.25 uM: 102%
[3]; conc 9.53674e-5 uM
  SKOV3 viability (%): 102.9% and 98.3%
[3]; conc 0.000190735 uM
  SKOV3 viability (%): 104.0% and 97.1%
[3]; conc 0.00038147 uM
  SKOV3 viability (%): 97.2% and 104.3%
[3]; conc 0.000762939 uM
  SKOV3 viability (%): 101.6% and 95.9%
[3]; conc 0.00152588 uM
  SKOV3 viability (%): 101.4% and 101.1%
[3]; conc 0.00305176 uM
  SKOV3 viability (%): 96.6% and 99.8%
[3]; conc 0.00610352 uM
  SKOV3 viability (%): 102.9% and 97.3%
[3]; conc 0.012207 uM
  SKOV3 viability (%): 93.7%
[3]; conc 0.0244141 uM
  SKOV3 viability (%): 96.2% and 94.8%
[3]; conc 0.0488281 uM
  SKOV3 viability (%): 100.2% and 102.5%
[3]; conc 0.0976562 uM
  SKOV3 viability (%): 99.8% and 96.7%
[3]; conc 0.195312 uM
  SKOV3 viability (%): 94.3% and 95.1%
[3]; conc 0.390625 uM
  SKOV3 viability (%): 99.5% and 95.3%
[3]; conc 0.78125 uM
  SKOV3 viability (%): 97.2%
[3]; conc 1.5625 uM
  SKOV3 viability (%): 98.7% and 99.8%
[3]; conc 3.125 uM
  SKOV3 viability (%): 98.6% and 90.6%
[3]; conc 6.25 uM
  SKOV3 viability (%): 97.2% and 96.7%
[3]; conc 12.5 uM
  SKOV3 viability (%): 95.5% and 90.7%
[3]; conc 25 uM
  SKOV3 viability (%): 97.5%
[3]; conc 50 uM
  SKOV3 viability (%): 21.5% and 18.1%
[4]; conc 9.53674e-5 uM
  MESO1 viability (%): 104.9%
[4]; conc 0.000190735 uM
  MESO1 viability (%): 103.1% and 96.1%
[4]; conc 0.00038147 uM
  MESO1 viability (%): 98.5% and 98.1%
[4]; conc 0.000762939 uM
  MESO1 viability (%): 110.7% and 97.2%
[4]; conc 0.00152588 uM
  MESO1 viability (%): 108.1% and 104.8%
[4]; conc 0.00305176 uM
  MESO1 viability (%): 97.8% and 100.1%
[4]; conc 0.00610352 uM
  MESO1 viability (%): 108.3% and 98.8%
[4]; conc 0.012207 uM
  MESO1 viability (%): 101.9% and 99.1%
[4]; conc 0.0244141 uM
  MESO1 viability (%): 104.7% and 100.7%
[4]; conc 0.0488281 uM
  MESO1 viability (%): 104.5% and 103.1%
[4]; conc 0.0976562 uM
  MESO1 viability (%): 98.7% and 102.0%
[4]; conc 0.195312 uM
  MESO1 viability (%): 104.9% and 106.8%
[4]; conc 0.390625 uM
  MESO1 viability (%): 97.6% and 96.8%
[4]; conc 0.78125 uM
  MESO1 viability (%): 95.1% and 98.4%
[4]; conc 1.5625 uM
  MESO1 viability (%): 99.0% and 101.9%
[4]; conc 3.125 uM
  MESO1 viability (%): 94.6% and 96.8%
[4]; conc 6.25 uM
  MESO1 viability (%): 96.9% and 103.3%
[4]; conc 12.5 uM
  MESO1 viability (%): 98.9% and 92.4%
[4]; conc 25 uM
  MESO1 viability (%): 86.3% and 80.9%
[4]; conc 50 uM
  MESO1 viability (%): 1.2% and 1.3%
[5]; conc 9.53674e-5 uM
  viability at 72 h, 9.53674e-05 uM: 101%
[5]; conc 0.000190735 uM
  viability at 72 h, 0.000190735 uM: 97.4%
[5]; conc 0.00038147 uM
  viability at 72 h, 0.00038147 uM: 96%
[5]; conc 0.000762939 uM
  viability at 72 h, 0.000762939 uM: 100%
[5]; conc 0.00152588 uM
  viability at 72 h, 0.00152588 uM: 97%
[5]; conc 0.00305176 uM
  viability at 72 h, 0.00305176 uM: 104%
[5]; conc 0.00610352 uM
  viability at 72 h, 0.00610352 uM: 105%
[5]; conc 0.012207 uM
  viability at 72 h, 0.012207 uM: 103%
[5]; conc 0.0244141 uM
  viability at 72 h, 0.0244141 uM: 103%
[5]; conc 0.0488281 uM
  viability at 72 h, 0.0488281 uM: 102%
[5]; conc 0.0976562 uM
  viability at 72 h, 0.0976562 uM: 107%
[5]; conc 0.195312 uM
  viability at 72 h, 0.195312 uM: 103%
[5]; conc 0.390625 uM
  viability at 72 h, 0.390625 uM: 109%
[5]; conc 0.78125 uM
  viability at 72 h, 0.78125 uM: 93.3%
[5]; conc 1.5625 uM
  viability at 72 h, 1.5625 uM: 99.9%
[5]; conc 3.125 uM
  viability at 72 h, 3.125 uM: 97.7%
[5]; conc 6.25 uM
  viability at 72 h, 6.25 uM: 97.3%
[5]; conc 12.5 uM
  viability at 72 h, 12.5 uM: 98%
[5]; conc 25 uM
  viability at 72 h, 25 uM: 84%
[5]; conc 50 uM
  viability at 72 h, 50 uM: 2.4%
T lymphoma Jurkat cells; conc 9.53674e-5 uM
  Jurkat viability (%): 102.6% and 90.2%
T lymphoma Jurkat cells; conc 0.000190735 uM
  Jurkat viability (%): 99.7% and 100.1%
T lymphoma Jurkat cells; conc 0.00038147 uM
  Jurkat viability (%): 102.4% and 92.6%
T lymphoma Jurkat cells; conc 0.000762939 uM
  Jurkat viability (%): 99.9% and 100.9%
T lymphoma Jurkat cells; conc 0.00152588 uM
  Jurkat viability (%): 104.7% and 99.5%
T lymphoma Jurkat cells; conc 0.00305176 uM
  Jurkat viability (%): 96.2% and 98.5%
T lymphoma Jurkat cells; conc 0.00610352 uM
  Jurkat viability (%): 101.1%
T lymphoma Jurkat cells; conc 0.012207 uM
  Jurkat viability (%): 91.7%
T lymphoma Jurkat cells; conc 0.0244141 uM
  Jurkat viability (%): 102.1%
T lymphoma Jurkat cells; conc 0.0488281 uM
  Jurkat viability (%): 95.8% and 99.2%
T lymphoma Jurkat cells; conc 0.0976562 uM
  Jurkat viability (%): 102.7% and 105.1%
T lymphoma Jurkat cells; conc 0.195312 uM
  Jurkat viability (%): 95.3% and 96.4%
T lymphoma Jurkat cells; conc 0.390625 uM
  Jurkat viability (%): 104.4%
T lymphoma Jurkat cells; conc 0.78125 uM
  Jurkat viability (%): 92.4% and 89.9%
T lymphoma Jurkat cells; conc 1.5625 uM
  Jurkat viability (%): 98.7%
T lymphoma Jurkat cells; conc 3.125 uM
  Jurkat viability (%): 91.9% and 84.9%
T lymphoma Jurkat cells; conc 6.25 uM
  Jurkat viability (%): 85.7% and 88.3%
T lymphoma Jurkat cells; conc 12.5 uM
  Jurkat viability (%): 78.8% and 80.3%
T lymphoma Jurkat cells; conc 25 uM
  Jurkat viability (%): 27.8% and 28.9%
[6]; conc 9.53674e-5 uM
  viability at 72 h, 9.53674e-05 uM: 101%
[6]; conc 0.000190735 uM
  viability at 72 h, 0.000190735 uM: 101%
[6]; conc 0.00038147 uM
  viability at 72 h, 0.00038147 uM: 105%
[6]; conc 0.000762939 uM
  viability at 72 h, 0.000762939 uM: 110%
[6]; conc 0.00152588 uM
  viability at 72 h, 0.00152588 uM: 104%
[6]; conc 0.00305176 uM
  viability at 72 h, 0.00305176 uM: 96%
[6]; conc 0.00610352 uM
  viability at 72 h, 0.00610352 uM: 102%
[6]; conc 0.012207 uM
  viability at 72 h, 0.012207 uM: 103%
[6]; conc 0.0244141 uM
  viability at 72 h, 0.0244141 uM: 98.4%
[6]; conc 0.0488281 uM
  viability at 72 h, 0.0488281 uM: 101%
[6]; conc 0.0976562 uM
  viability at 72 h, 0.0976562 uM: 98.8%
[6]; conc 0.195312 uM
  viability at 72 h, 0.195312 uM: 97.6%
[6]; conc 0.390625 uM
  viability at 72 h, 0.390625 uM: 103%
[6]; conc 0.78125 uM
  viability at 72 h, 0.78125 uM: 95.4%
[6]; conc 1.5625 uM
  viability at 72 h, 1.5625 uM: 97.9%
[6]; conc 3.125 uM
  viability at 72 h, 3.125 uM: 90.3%
[6]; conc 6.25 uM
  viability at 72 h, 6.25 uM: 93.3%
[6]; conc 12.5 uM
  viability at 72 h, 12.5 uM: 79.6%
[6]; conc 25 uM
  viability at 72 h, 25 uM: 26.4%
[6]; conc 50 uM
  viability at 72 h, 50 uM: 0.7%
